# Experimental data taken from patent US6737383B1, “Herbicidal oxadiazolidines” (priority 1999, dated 2004).
# How the values were obtained:
# bedstraw = experiment: Test B pre/postemergence bedstraw; format: in vivo, Galium aparine
# How it was run: (§1)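 Herbicidal effect was estimated by eye on a ten-point control scale after plants spent twelve to sixteen days in a greenhouse following soil or foliar treatment. Foliar sprays targeted plants at one to four leaves; all doses were formulated in a non-phytotoxic solvent with surfactant.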
# blackgrass = experiment: Test B pre/postemergence blackgrass; format: in vivo, Alopecurus myosuroides
# How it was run: as §1
# surinam grass = experiment: Test B pre/postemergence surinam grass; format: in vivo, Brachiaria decumbens
# How it was run: as §1
# cocklebur = experiment: Test B pre/postemergence cocklebur; format: in vivo, Xanthium strumarium
# How it was run: as §1
# corn = experiment: Test B pre/postemergence corn; format: in vivo, Zea mays
# How it was run: as §1
# crabgrass = experiment: Test B pre/postemergence crabgrass; format: in vivo, Digitaria sanguinalis
# How it was run: as §1
# giant foxtail = experiment: Test B pre/postemergence giant foxtail; format: in vivo, Setaria faberii
# How it was run: as §1
# morningglory = experiment: Test B pre/postemergence morningglory; format: in vivo, Ipomoea hederacea
# How it was run: as §1
# pigweed = experiment: Test B pre/postemergence pigweed; format: in vivo, Amaranthus retroflexus
# How it was run: as §1
# rape = experiment: Test B pre/postemergence rape; format: in vivo, Brassica napus
# How it was run: as §1
# sugar beet = experiment: Test B pre/postemergence sugar beet; format: in vivo, Beta vulgaris
# How it was run: as §1
# velvetleaf = experiment: Test B pre/postemergence velvetleaf; format: in vivo, Abutilon theophrasti
# How it was run: as §1
# wild oat = experiment: Test B pre/postemergence wild oat; format: in vivo, Avena fatua
# How it was run: as §1
# rice = experiment: Test B flood test rice; format: in vivo, Oryza sativa
# How it was run: (§2)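 Read-out is a visual response score from 0 (no effect) to 10 (complete control), assigned by comparison with untreated controls. Treatment was applied at the 2-leaf stage, and plants stayed in the greenhouse for twelve to sixteen days before scoring.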
# smallflower flatsedge = experiment: Test B flood test smallflower flatsedge; format: in vivo, Cyperus difformis
# How it was run: as §2
# bamyardgrass = experiment: Test B flood test barnyardgrass; format: in vivo, Echinochloa crus-galli
# How it was run: as §2
# [1] = Postemergence, Rate 62 g/ha, scale 0 to 10, 0 is no effect, 10 is complete control
# [2] = Postemergence, Rate 250 g/ha, scale 0 to 10, 0 no effect, 10 complete control
# [3] = Preemergence, Rate 62 g/ha, scale 0 to 10, 0 is no effect, 10 is complete control
# [4] = Preemergence, Rate 125 g/ha, scale 0 to 10 (0 no effect, 10 complete control)
# [5] = Preemergence, Rate 250 g/ha, scale of 0 to 10 where 0 is no effect and 10 is complete control
# [6] = Preemergence, Rate 500 g/ha, scale 0 (no effect) to 10 (complete control)
# [7] = Rate 125 g/ha, Postemergence, scale 0 to 10, 0 no effect, 10 complete control
# [8] = Rate 500 g/ha, Postemergence, 0 to 10 scale (0 no effect, 10 complete control)
# [9] = Rate 125 g/ha, Postemergence section (flood test species), scale 0 to 10, 0 no effect, 10 complete control
# [10] = Rate 500 g/ha, Postemergence section of Table B, 0 to 10 scale (0 no effect, 10 complete control)
# [11] = flood test, listed under Postemergence, Rate 250 g/ha, scale 0 to 10, 0 no effect, 10 complete control
compound,measurement,setting,value
CC(C)N(C(=O)n1oc(=O)n(-c2cc(Cl)ccc2Cl)c1=O)c1ccc(F)cc1 [Compound 16],Bedstraw plant response rating,bedstraw; [1],0
same,Bedstraw plant response rating,bedstraw; [2],0
same,"Plant response rating, Bedstraw",bedstraw; [3],0
same,"Plant response rating, Bedstraw",bedstraw; [4],0
same,"Plant response rating, Bedstraw",bedstraw; [5],0
same,Bedstraw plant response rating,bedstraw; [6],0
same,Bedstraw plant response rating,bedstraw; [7],0
same,Bedstraw plant response rating,bedstraw; [8],0
same,Blackgrass plant response rating,blackgrass; [1],0
same,Blackgrass plant response rating,blackgrass; [2],0
same,"Plant response rating, Blackgrass",blackgrass; [3],0
same,"Plant response rating, Blackgrass",blackgrass; [4],0
same,"Plant response rating, Blackgrass",blackgrass; [5],0
same,Blackgrass plant response rating,blackgrass; [6],0
same,Blackgrass plant response rating,blackgrass; [7],0
same,Blackgrass plant response rating,blackgrass; [8],2
same,B. signalgrass plant response rating,surinam grass; [1],0
same,B. signalgrass plant response rating,surinam grass; [2],0
same,"Plant response rating, B. signalgrass",surinam grass; [3],0
same,"Plant response rating, B. signalgrass",surinam grass; [4],0
same,"Plant response rating, B. signalgrass",surinam grass; [5],0
same,B. signalgrass plant response rating,surinam grass; [6],0
same,B. signalgrass plant response rating,surinam grass; [7],0
same,B. signalgrass plant response rating,surinam grass; [8],0
same,Cocklebur plant response rating,cocklebur; [1],0
same,Cocklebur plant response rating,cocklebur; [2],0
same,"Plant response rating, Cocklebur",cocklebur; [3],0
same,"Plant response rating, Cocklebur",cocklebur; [4],0
same,"Plant response rating, Cocklebur",cocklebur; [5],0
same,Cocklebur plant response rating,cocklebur; [6],0
same,Cocklebur plant response rating,cocklebur; [7],0
same,Cocklebur plant response rating,cocklebur; [8],0
same,Corn plant response rating,corn; [1],0
same,Corn plant response rating,corn; [2],0
same,"Plant response rating, Corn",corn; [3],0
same,"Plant response rating, Corn",corn; [4],0
same,"Plant response rating, Corn",corn; [5],0
same,Corn plant response rating,corn; [6],0
same,Corn plant response rating,corn; [7],0
same,Corn plant response rating,corn; [8],0
same,Crabgrass plant response rating,crabgrass; [1],0
same,Crabgrass plant response rating,crabgrass; [2],0
same,"Plant response rating, Crabgrass",crabgrass; [3],0
same,"Plant response rating, Crabgrass",crabgrass; [4],2
same,"Plant response rating, Crabgrass",crabgrass; [5],2
same,Crabgrass plant response rating,crabgrass; [6],2
same,Crabgrass plant response rating,crabgrass; [7],0
same,Crabgrass plant response rating,crabgrass; [8],0
same,Giant foxtail plant response rating,giant foxtail; [1],0
same,Giant foxtail plant response rating,giant foxtail; [2],0
same,"Plant response rating, Giant foxtail",giant foxtail; [3],0
same,"Plant response rating, Giant foxtail",giant foxtail; [4],2
same,"Plant response rating, Giant foxtail",giant foxtail; [5],3
same,Giant foxtail plant response rating,giant foxtail; [6],8
same,Giant foxtail plant response rating,giant foxtail; [7],0
same,Giant foxtail plant response rating,giant foxtail; [8],3
same,Morningglory plant response rating,morningglory; [1],1
same,Morningglory plant response rating,morningglory; [2],1
same,"Plant response rating, Morningglory",morningglory; [3],0
same,"Plant response rating, Morningglory",morningglory; [4],0
same,"Plant response rating, Morningglory",morningglory; [5],0
same,Morningglory plant response rating,morningglory; [6],0
same,Morningglory plant response rating,morningglory; [7],1
same,Morningglory plant response rating,morningglory; [8],3
same,Redroot pigweed plant response rating,pigweed; [1],0
same,Redroot pigweed plant response rating,pigweed; [2],0
same,"Plant response rating, Redroot pigweed",pigweed; [3],0
same,"Plant response rating, Redroot pigweed",pigweed; [4],0
same,"Plant response rating, Redroot pigweed",pigweed; [5],0
same,Redroot pigweed plant response rating,pigweed; [6],0
same,Redroot pigweed plant response rating,pigweed; [7],0
same,Redroot pigweed plant response rating,pigweed; [8],0
same,Rape plant response rating,rape; [1],0
same,Rape plant response rating,rape; [2],0
same,"Plant response rating, Rape",rape; [3],0
same,"Plant response rating, Rape",rape; [4],0
same,"Plant response rating, Rape",rape; [5],0
same,Rape plant response rating,rape; [6],0
same,Rape plant response rating,rape; [7],0
same,Rape plant response rating,rape; [8],0
same,Sugarbeets plant response rating,sugar beet; [1],0
same,Sugarbeets plant response rating,sugar beet; [2],0
same,"Plant response rating, Sugarbeets",sugar beet; [3],0
same,"Plant response rating, Sugarbeets",sugar beet; [4],0
same,"Plant response rating, Sugarbeets",sugar beet; [5],0
same,Sugarbeets plant response rating,sugar beet; [6],0
same,Sugarbeets plant response rating,sugar beet; [7],0
same,Velvetleaf plant response rating,velvetleaf; [1],0
same,Velvetleaf plant response rating,velvetleaf; [2],0
same,"Plant response rating, Velvetleaf",velvetleaf; [3],0
same,"Plant response rating, Velvetleaf",velvetleaf; [4],0
same,"Plant response rating, Velvetleaf",velvetleaf; [5],0
same,Velvetleaf plant response rating,velvetleaf; [6],0
same,Velvetleaf plant response rating,velvetleaf; [7],0
same,Wild oats plant response rating,wild oat; [1],0
same,Wild oats plant response rating,wild oat; [2],0
same,"Plant response rating, Wild oats",wild oat; [4],0
same,"Plant response rating, Wild oats",wild oat; [5],0
same,Wild oats plant response rating,wild oat; [6],0
same,Wild oats plant response rating,wild oat; [7],0
same,Rice plant response rating,rice; [1],0
same,Rice plant response rating,rice; [9],0
same,Rice plant response rating,rice; [10],0
same,Rice plant response rating,rice; [11],0
same,S. Flatsedge plant response rating,smallflower flatsedge; [1],0
same,S. Flatsedge plant response rating,smallflower flatsedge; [9],0
same,S. Flatsedge plant response rating,smallflower flatsedge; [11],0
same,Barnyardgrass plant response rating,bamyardgrass; [1],0
same,Barnyardgrass plant response rating,bamyardgrass; [9],0
same,Barnyardgrass plant response rating,bamyardgrass; [10],0
same,Barnyardgrass plant response rating,bamyardgrass; [11],0
